Measured values published in patent publication US20030225047A1, “Sulfatase inhibiting progestogen-only contraceptive regimens” (priority 2002, published 2003).
pIC50: −log10 of the molar value.

How the values were obtained:
[1] = humans; major metabolite; cited from earlier work
[2] = system: conversion of E1S to E2 (sulfatase activity) in T-47D breast cancer cell line; assay: Conversion of [3H]-E1S to E2 in T-47D human mammary cancer cells; type: cell-based; settings: for inhibition at 0.005 µM / inhibition at 0.5 µM / inhibition at 50 µM / pIC50: Homo sapiens, T47D; for inhibition at 0.005 µM / inhibition at 0.5 µM / inhibition at 50 µM: mean ± SEM; for pIC50: non-linear regression analysis; for E2 formed: 5×10^−9 mol/l [3H]-E1S, control 1805 ± 152
Procedure: (§1) [6,7-^3H(N)]-estrone sulfate (^3H-E1S), ammonium salt (sp. act. 53 Ci/mmol) and [4-^14C]-estradiol (^14C-E2) (sp. act. 57 mCi/mmol) were purchased from New England Nuclear Division (DuPont de Nemours, Les Ulls, France). The purity of the radioisotopes was assessed by thin-layer chromatography (TLC) in the appropriate system before use. E1S, ammonium salt, unlabeled E1and E2, (analytical grade) were obtained from Sigma-Aldrich Chimle, (St Quentin Fallavier, France). 17-deacetylnorgestimate (NGMN; 13-ethyl-17-hydroxy-18,19-dinor-17α-pregn-4-en-20-yn-3-one oxime) was a gift from R. W. Johnson Pharmaceutical Research Institute, Medicinal Chemistry Department, (Raritan, N.J., USA); medroxyprogesterone acetate (MPA, 17α-acetoxy-6α-methylprogesterone) was obtained from Sigma-Aldrich Chimie. All other chemicals were of the highest grade commercially available.
(§2) The hormone-dependent MCF-7 and T-47D human mammary cancer cell lines were grown in Eagle's Minimal Essential Medium (MEM) buffered with 10 mmol/l HEPES (pH 7.6), supplemented with 2 mmol/l L-glutamine, 100 U/ml penicillin-streptomycin and 5% fetal calf serum (FCS) (A.T.G.C., Marne-la-Vallée, France) for T-47D, or 10% FCS for MCF-7 cells, and incubated at 37° C. n a humidified atmosphere of 5% CO2. Media were changed twice a week. The cells were passed every 10-12 days and replated in 75 cm^2 flasks (A.T.G.C.) at 3×10^6 cells/flask. Four days before the experiments, the cells were transferred to MEM containing 5% steroid-depleted treated FCS. The FCS had been treated overnight at 4° C. with dextran-coated charcoal (DCC)(0.1-1% w/v, DCC-FCS). The MCF-7 and T-47D cell lines used herein were deposited in accordance with the Budapest Treaty under the references MCF7_JJPRD and T47D_JJPRD on May 17, 2002 at The Belgian Co-ordinated Collections of Micro-organisms (BCCM), Laboratorium voor Moleculaire Biologie, Universiteit Gent, K. L. Ledeganckstraat 35, B-9000 Gent, Belgium and are publicly available under accession numbers LMBP 5862CB and LMBP 5863CB, respectively.
(§3) Preconfluent cells were incubated for 4 hours at 37° C. in MEM-DCC-FCS with the addition of 5×10^−9 mol/l of [^3H]-E1S, alone (control cells) or in combination with the different compounds: NGMN or MPA, dissolved in ethanol (final concentration <0.2%), at a range of concentrations of 5×10^−5-5×10^−9 mol/l. Control cells received ethanol vehicle only. After 24 hours, the medium was removed, the cells washed twice with ice-cold Hank's Buffered Saline Solution (HBSS, calcium-magnesium-free)(A.T.G.C.) and harvested by scraping. After centrifugation, the pallet was treated with 80% ethanol and the radioactivity extracted for at least 24 h at −20° C. The cellular radioactivity uptake was determined in the ethanolic supernatant and the DNA content in the remaining pellet was evaluated according to Burton Biochem Journal 62:315-323, 1956. [^14C]-E2 (5,000 dpm) was added to monitor analytical losses and unlabeled E1and E2 (50 μg) were used as carriers and reference indicators. In the total ethanolic extracts, E2 was isolated by thin layer chromatography (TLC) on silica gel 60F254 (Merck, Darmstadt, Germany), developed with chloroformi-ethylacetate (4:1, v/v) system. After visualization of the estrogens under U.V. at 254 nm, the appropriate areas were cut off into small pieces, placed in liquid scintillation vials with ethanol (0.5 ml) and allowed to extract for […]. Three ml of Opti-fluor (Packard, Rungis, France) were added and the vials were analyzed for ^3H and ^14C contents with quench correction by external standarization. The quantitative evaluation of E2 was calculated as a percentage of the total radioactivity associated with the cells and then expressed as fmol of E2 formed/mg DNA from E1S.
(§4) Data are expressed as the mean±standard error of the mean (SEM) values. Student's t-test was used to assess the significance of the differences between means; p values ≦0.05_were considered significant. […]

[3] = system: conversion of E1S to E2 (sulfatase activity) in MCF-7 breast cancer cell line; assay: Conversion of [3H]-E1S to E2 in MCF-7 human mammary cancer cells; type: cell-based; settings: for inhibition at 0.005 µM / inhibition at 0.5 µM / inhibition at 50 µM / pIC50: Homo sapiens; for inhibition at 0.005 µM: MCF7, compound conc 0.005 × 10^−6 mol/l; for inhibition at 0.005 µM / inhibition at 0.5 µM / inhibition at 50 µM: mean ± SEM; for inhibition at 0.5 µM: MCF7, compound conc 0.5 × 10^−6 mol/l; for inhibition at 50 µM: MCF7, compound conc 50 × 10^−6 mol/l; for pIC50: MCF7, non-linear regression analysis; for E2 formed: 5×10^−9 mol/l [3H]-E1S, control 2185 ± 101
Procedure: as §1, §2, §3, §4

[4] = compound conc 0.005 × 10^−6 mol/l
[5] = compound conc 0.5 × 10^−6 mol/l
[6] = compound conc 0.005 × 10^−6 mol/l, mean of 3 experiments

Structure (SMILES)	fraction of norgestimate converted to norelgestromin in vivo [1] [%]	inhibition at 0.005 µM [2, 4] [%]	inhibition at 0.5 µM [2, 5] [%]	inhibition at 50 µM ([2]; compound conc 50 × 10^−6 mol/l) [%]	pIC50 [2]	E2 formed [2, 6] [fmol/mg DNA]	E2 formed [2, 5] [fmol/mg DNA]	E2 formed ([2]; compound conc 50 × 10^−6 mol/l) [fmol/mg DNA]	inhibition at 0.005 µM [3] [%]	inhibition at 0.5 µM [3] [%]	inhibition at 50 µM [3] [%]	pIC50 [3]	E2 formed [3, 4] [fmol/mg DNA]	E2 formed [3, 5] [fmol/mg DNA]	E2 formed ([3]; compound conc 50 × 10^−6 mol/l) [fmol/mg DNA]
C#C[C@]1(OC(C)=O)CC[C@H]2[C@@H]3CCC4=CC(=NO)CC[C@@H]4[C@H]3CC[C@@]21CC (mixture of isomers) [norgestimate]	≥ 80														
CC(=O)O[C@]1(C(C)=O)CC[C@H]2[C@@H]3C[C@H](C)C4=CC(=O)CC[C@]4(C)[C@H]3CC[C@@]21C [MPA, 17α-acetoxy-6α-methylprogesterone]		31	47	61	5.67	1245	957	704	6	20	63	4.58	2054	1748	808
C#C[C@]1(O)CC[C@H]2[C@@H]3CCC4=C/C(=N/O)CC[C@@H]4[C@H]3CC[C@@]21CC [NGMN, 13-ethyl-17-hydroxy-18,19-dinor-17α-pregn-4-en-20-yn-3-one oxime]		43	74	97	7.90	1029	469	54	25	57	96	6.75	1639	940	87
